Results as given in patent publication US20230255943A1, “MMP-9 AND MMP-12 INHIBITION FOR TREATING SPINAL CORD INJURY OR RELATED INJURY TO NEUROLOGICAL TISSUE” (The University of Birmingham, priority 2020, published 2023).

Assays:
[1] = system: mice with DC crush injury; test: CSF biomarkers of SCI (S100β, NSE, GFAP, pNF-H, NF-L); format: in vivo, mouse; conditions: 3 d after injury
[2] = target: T1, MMP-9 (Mus musculus, UniProt P41245); test: MMP-9 enzyme activity after SCI in mice (SensoLyte 520 fluorimetric assay); format: in vivo; conditions: for suppression of MMP-9 activity in CSF / suppression of MMP-9 activity in serum / suppression of MMP-9 activity in spinal cord tissues: DC injury; for suppression of MMP-9 activity in spinal cord tissues: lowest most effective dose; for lowest most effective dose: suppression of MMP-9 and MMP-12 activity
T1 construct: from tissue; host or cells: mouse spinal cord lesion site homogenate, serum and CSF
T1 sequence (P41245 108-730): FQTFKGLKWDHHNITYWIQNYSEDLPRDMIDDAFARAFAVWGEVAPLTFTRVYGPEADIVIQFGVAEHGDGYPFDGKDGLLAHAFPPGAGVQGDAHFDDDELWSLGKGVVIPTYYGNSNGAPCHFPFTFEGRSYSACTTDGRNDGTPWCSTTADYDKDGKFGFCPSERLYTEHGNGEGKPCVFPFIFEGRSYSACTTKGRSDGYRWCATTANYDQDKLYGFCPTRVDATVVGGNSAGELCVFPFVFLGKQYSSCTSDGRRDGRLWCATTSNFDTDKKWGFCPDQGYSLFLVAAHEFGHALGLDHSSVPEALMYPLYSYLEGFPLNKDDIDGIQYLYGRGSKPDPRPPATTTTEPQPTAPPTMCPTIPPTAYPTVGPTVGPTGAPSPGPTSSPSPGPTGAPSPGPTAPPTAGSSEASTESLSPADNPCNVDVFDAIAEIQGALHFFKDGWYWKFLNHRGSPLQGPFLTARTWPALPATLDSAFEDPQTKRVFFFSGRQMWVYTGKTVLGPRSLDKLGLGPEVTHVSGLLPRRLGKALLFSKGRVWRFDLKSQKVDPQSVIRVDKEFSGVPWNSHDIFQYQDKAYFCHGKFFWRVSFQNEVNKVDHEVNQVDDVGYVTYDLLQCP
Protocol: For oral delivery of AZD1236, n=6 adult male C57BL6 mice/group (Charles River, Margate, UK) were randomly allocated to either: (1), Sham (control; partial laminectomy but no DC crush injury); (2), DC crush injury+vehicle (partial laminectomy followed by DC crush injury and injection of vehicle); (3), DC crush injury+100 mg/kg AZD1236; (4), DC crush injury+200 mg/kg AZD1236; and (5), DC crush injury+300 mg/kg AZD1236. For intrathecal (it) delivery of AZD1236, adult male C57BL6 mice (25-30 g) (Charles River, Margate, UK) were randomly allocated to either: (1), Sham (control; partial laminectomy but no DC crush injury); (2), DC crush injury+vehicle (partial laminectomy followed by DC crush injury and injection of vehicle); (3), DC crush injury+2.5 mg/kg AZD1236; (4), DC crush injury+5 mg/kg AZD1236; and (5), DC crush injury+10 mg/kg AZD1236. For intrathecal delivery an indwelling atlanto-occipital intrathecal catheter was inserted into the intrathecal space, as described previously (F. A. Oladosu, B. P. Ciszek, S. C. O'Buckley, A. G. Nackley, Novel intrathecal and subcutaneous catheter delivery systems in the mouse. J Neurosci Methods 264, 119-128 (2016)). Briefly, with mice in the sternal recumbency a small incision was made at the nape of the neck followed by detachment of the muscles on either side of the external occipital crest to expose the A-O membrane. The membrane was incised and a 6 cm Alzet mouse intrathecal catheter (Alzet, Cupertino, Calif., USA) and polyurethane segments were gently guided 2.5 cm into the intrathecal space. The catheter was secured using 4-0 silk sutures (Oasis Medical, IL) and the exposed end of the catheter was sealed off with a stainless-steel plug and affixed to the upper back. Animals were injected immediately with vehicle or AZD1236 followed by a 10 μl PBS catheter flush. Injections were repeated every twice daily for the first 3 days after injury and drugs and vehicle reagents were delivered over 1 min time period using a Hamilton microlitre syringe (Hamilton Co, USA). Where specified intact animals with no surgical procedures were also used. All lesions were administered under 5% isofluorane induced inhalation anaesthesia, with 1.51/min O2. Pre- and post-injury analgesia was also provided.
DC crush injury was administered bilaterally at the T8 vertebral level as described previously (S. Surey, M. Berry, A. Logan, R. Bicknell, Z. Ahmed, Differential cavitation, angiogenesis and wound-healing responses in injured mouse and rat spinal cords. Neuroscience 275, 62-80 (2014); M. L. Read, S. Mir, R. Spice, R. J. Seabright, E. L. Suggate, Z. Ahmed, M. Berry, A. Logan, Profiling RNA interference (RNAi)-mediated toxicity in neural cultures for effective short interfering RNA design. J Gene Med 11, 523-534 (2009)). Briefly, calibrated watchmaker's forceps were separated by 0.5 mm and inserted through the dorsal cord meninges to a depth of 0.45 mm in mice and separated by 1 mm and inserted through the dorsal cord meninges to a depth of 1.0 mm in rats, and the DC were crushed for 3 seconds. AZD1236 or vehicle was administered twice daily by oral gavage or intrathecally, either immediately for the first 3 days or 24 hours after injury and treating twice daily until day 4 (i.e. 3 days of AZD1236 dosing). All experiments were performed with n=6 mice/group and repeated on at least 2-3 independent occasions (total=12-18 animals/group/test).
CC SCI was administered at the T7-T8 vertebral level after exposure of T6-T9 by laminectomy. […]

[3] = system: rats with DC crush injury; test: Tape sensing and removal (sensory function) in rat DC model; format: in vivo; conditions: over 6 weeks
Protocol: (§1) The efficacy of oral AZD3342 in the DC injury model in adult Sprague-Dawley rat was also assessed. Animals were divided into 6 groups: (1), Sham (control); (2), DC crush injury+Vehicle; (3), DC crush injury+15 mg/kg AZD3342; (4), DC crush injury+75 mg/kg […]; (5), DC crush injury+375 mg/kg AZD3342; and (6), DC crush injury+Melatonin. Animals were dosed twice daily with oral AZD3342 or vehicle with the experimenters masked to the treatment conditions. These experiments were performed with n=6 rats/group and repeated on 2-3 independent occasions (total n=12-18 rats/group/test).
Functional testing after DC lesion and treatment was carried out as described previously (N. D. Fagoe, C. L. Attwell, R. Eggers, L. Tuinenbreijer, D. Kouwenhoven, J. Verhaagen, M. R. Mason, Evaluation of Five Tests for Sensitivity to Functional Deficits following Cervical or Thoracic Dorsal Column Transection in the Rat. PLoS One 11, e0150141 (2016)). […]
Tape removal test (sensory function): The tape removal test determines touch perception from the left hind paw. After holding animals with both hind-paws extended, the time it took for the animal to detect and remove a piece of tape of 15×15 mm (Kip Hochkrepp, Bocholt, Germany) affixed to the palm of the left hind-paw was recorded and used to calculate the mean sensing time.

[4] = system: rats with DC crush injury; test: CAP traces after DC injury in rats; format: in vivo; conditions: rat DC injury, 6 weeks
Protocol: as §1
Compound action potentials (CAP) were recorded at 6 w weeks after DC injury and treatment, as described previously—for example B. C. Hains, C. Y. Saab, A. C. […]
Briefly, the experimenter was masked to the treatment status of the animals and the CAP amplitude was calculated between the negative deflection after the stimulus artifact and the next peak of the wave. CAP area was also calculated by rectifying the CAP component (full-wave rectification) and measuring its area. To confirm our recordings and that a CAP could not be recorded, the dorsal half of the spinal cord was transected after each experiment between the stimulating and recording electrodes.

Structure (SMILES): C[C@]1(CS(=O)(=O)N2CC=C(C#Cc3cnc(C4CC4)nc3)CC2)NC(=O)NC1=O [AZD1236]
- levels of S100β, NSE, GFAP, pNF-H and NF-L in CSF [1]: significantly attenuated all of these biomarkers to near sham-control levels
- suppression of MMP-9 activity in CSF ([2]; intrathecal delivery): 88±2%
- suppression of MMP-9 activity in serum ([2]; intrathecal delivery): 71±2%
- suppression of MMP-9 activity in spinal cord tissues ([2]; intrathecal): 87±5%
- suppression of MMP-9 activity in CSF ([2]; oral delivery, 200 mg/kg): 74±2%
- suppression of MMP-9 activity in serum ([2]; oral delivery, 200 mg/kg): 90±2%
- suppression of MMP-9 activity in spinal cord tissues ([2]; oral): 88±4%
- time for MMP-9 activity to return to DC+Vehicle injury levels after withdrawal ([2]; injury site, oral dosing withdrawn after 3 d): 4 days
- lowest most effective dose ([2]; intrathecal injection): 5 mg/kg
- MMP-9 activity, 24-h delayed treatment ([2]; optimal doses, 24 h delay vs immediate): equally as effective as immediate delivery
- lowest most effective dose ([2]; oral administration): 200 mg/kg

Structure (SMILES): C[C@]1(CS(=O)(=O)N2CCC(Oc3ccc(Cl)cn3)CC2)NC(=O)NC1=O [AZD3342, (5S)-5-[4-(5-chloro-pyridin-2-yloxy)-piperidine-1-sulfonylmethyl]-5-methylimidazolidine-2,4-dione]
- sensory function (tape sensing and removal) [3]: significantly improved
- electrophysiological CAP traces [4]: significantly improved
